Source: PubChem BioAssay AID248 (DTP/NCI, 2004)
Where “and” joins values, the source holds several entries; their conditions need not be identical. Identical values can stand only once. Toxic doses and inconclusive results are not listed. Cut-off read from the data, not from the text of the source: active = T/C of 150% or more; inactive = T/C below 125%.

Test system: L1210 leukemia ip in BDF1 mice, survival T/C
Test: NCI In Vivo Anticancer Drug Screen. Data for tumor model L1210 Leukemia (intraperitoneal) in B6D2F1 (BDF1) mice
Conditions: endpoint: mean survival time, higher = longer survival
In short: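 Value reflects the ratio of survival in compound-treated mice to survival in vehicle-treated controls, with both groups carrying the same transplanted tumor.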

[1] = dose: 100.0 mg/kg/injection, schedule: Q04DX003 (ip), vehicle: saline
[2] = dose: 200.0 mg/kg/injection, schedule: Q04DX003 (ip), vehicle: saline
[3] = dose: 400.0 mg/kg/injection, schedule: Q04DX003 (ip), vehicle: saline
[4] = dose: 50.0 mg/kg/injection, schedule: Q01DX001 (ip), vehicle: saline
[5] = dose: 100.0 mg/kg/injection, schedule: Q01DX001 (ip), vehicle: saline
[6] = dose: 6.25 mg/kg/injection, schedule: Q01DX009 (ip), vehicle: Klucel (hydroxypropylcellulose) (HPC)
[7] = dose: 12.5 mg/kg/injection, schedule: Q01DX009 (ip), vehicle: Klucel (hydroxypropylcellulose) (HPC)
[8] = dose: 200.0 mg/kg/injection, schedule: Q01DX001 (ip), vehicle: saline
[9] = dose: 100.0 mg/kg/injection, schedule: Q04DX002 (ip), vehicle: Klucel (hydroxypropylcellulose) (HPC)
[10] = dose: 400.0 mg/kg/injection, schedule: Q04DX002 (ip), vehicle: Klucel (hydroxypropylcellulose) (HPC)
[11] = dose: 100.0 mg/kg/injection, schedule: Q01DX009 (ip), vehicle: saline
[12] = dose: 200.0 mg/kg/injection, schedule: Q01DX009 (ip), vehicle: saline
[13] = dose: 400.0 mg/kg/injection, schedule: Q01DX009 (ip), vehicle: saline
[14] = dose: 100.0 mg/kg/injection, schedule: Q01DX001 (ip), vehicle: Klucel (hydroxypropylcellulose) (HPC)
[15] = dose: 200.0 mg/kg/injection, schedule: Q01DX001 (ip), vehicle: Klucel (hydroxypropylcellulose) (HPC)
[16] = dose: 400.0 mg/kg/injection, schedule: Q01DX001 (ip), vehicle: Klucel (hydroxypropylcellulose) (HPC)

Measured: T/C

Cc1ccc(-n2nnnc2N)c(C)c1
inactive: [1] 94 % of control | [2] 91 % of control | [3] 94 % of control

O=S1(=O)CC2C1C1(Cl)C(Cl)=C(Cl)C2(Cl)C1(Cl)Cl (stereo not given)
inactive: dose: 50.0 mg/kg/injection, schedule: Q01DX001 (ip), vehicle: carboxymethylcellulose (CMC) 100 % of control | dose: 100.0 mg/kg/injection, schedule: Q01DX001 (ip), vehicle: carboxymethylcellulose (CMC) 91 % of control | dose: 200.0 mg/kg/injection, schedule: Q01DX001 (ip), vehicle: carboxymethylcellulose (CMC) 96 % of control | dose: 400.0 mg/kg/injection, schedule: Q01DX001 (ip), vehicle: carboxymethylcellulose (CMC) 96 % of control

CCC1COC(=O)N1 (stereo not given)
inactive: dose: 25.0 mg/kg/injection, schedule: Q01DX009 (ip), vehicle: saline 102 % of control | [4] 95 % of control | dose: 50.0 mg/kg/injection, schedule: Q01DX009 (ip), vehicle: saline 105 % of control | [5] 100 % of control

O=C(O)c1ccc(OCCCCOc2ccccc2)c(Cl)c1
inactive: dose: 100.0 mg/kg/injection, schedule: Q01DX009 (ip), vehicle: Klucel (hydroxypropylcellulose) (HPC) 98 % of control | dose: 200.0 mg/kg/injection, schedule: Q01DX009 (ip), vehicle: Klucel (hydroxypropylcellulose) (HPC) 98 % of control | dose: 400.0 mg/kg/injection, schedule: Q01DX009 (ip), vehicle: Klucel (hydroxypropylcellulose) (HPC) 95 % of control

O=Nc1ccc2cc(O)ccc2c1O
inactive: dose: 1.56 mg/kg/injection, schedule: Q01DX009 (ip), vehicle: Klucel (hydroxypropylcellulose) (HPC) 96 % of control | dose: 3.12 mg/kg/injection, schedule: Q01DX009 (ip), vehicle: Klucel (hydroxypropylcellulose) (HPC) 96 % of control | [6] 104 % of control | [7] 101 % of control | dose: 12.5 mg/kg/injection, schedule: Q04DX003 (ip), vehicle: Klucel (hydroxypropylcellulose) (HPC) 103 % of control | dose: 25.0 mg/kg/injection, schedule: Q04DX003 (ip), vehicle: Klucel (hydroxypropylcellulose) (HPC) 97 % of control | dose: 50.0 mg/kg/injection, schedule: Q04DX003 (ip), vehicle: Klucel (hydroxypropylcellulose) (HPC) 100 % of control

CCOC(=O)Cc1ccccc1
inactive: dose: 100.0 mg/kg/injection, schedule: Q01DX009 (ip), vehicle: saline with Tween-80 97 % of control | dose: 175.0 mg/kg/injection, schedule: Q04DX003 (ip), vehicle: saline with Tween-80 91 % of control | dose: 200.0 mg/kg/injection, schedule: Q01DX009 (ip), vehicle: saline with Tween-80 104 % of control | dose: 265.0 mg/kg/injection, schedule: Q04DX003 (ip), vehicle: saline with Tween-80 106 % of control | dose: 400.0 mg/kg/injection, schedule: Q01DX009 (ip), vehicle: saline with Tween-80 99 % of control

c1ccc2c(C3CSC3)nncc2c1
inactive: [5] 97 % of control | [8] 97 % of control | dose: 400.0 mg/kg/injection, schedule: Q01DX001 (ip), vehicle: saline 94 % of control

O=C1C=C(c2ccccc2)C(O)(c2ccccc2)/C1=C/c1ccccc1 (stereo not given)
inactive: dose: 6.25 mg/kg/injection, schedule: Q04DX002 (ip), vehicle: saline with Tween-80 100 % of control | dose: 12.5 mg/kg/injection, schedule: Q04DX002 (ip), vehicle: saline with Tween-80 92 % of control | dose: 25.0 mg/kg/injection, schedule: Q04DX002 (ip), vehicle: saline with Tween-80 92 % of control

CCCCCCCCCCCC(C1CCC(C)CC1)C1CCC(C)CC1 (stereo not given)
inactive: dose: 100.0 mg/kg/injection, schedule: Q01DX001 (ip), vehicle: saline with Tween-80 95 % of control | dose: 400.0 mg/kg/injection, schedule: Q01DX001 (ip), vehicle: saline with Tween-80 89 % of control

COC(=O)c1n[nH]c(C)c1N=NN1CCC(C(N)=O)CC1
inactive: dose: 9.38 mg/kg/injection, schedule: Q01DX001 (ip), vehicle: other 118 % of control | dose: 18.75 mg/kg/injection, schedule: Q01DX001 (ip), vehicle: other 109 % of control | dose: 37.5 mg/kg/injection, schedule: Q01DX001 (ip), vehicle: other 101 % of control

N#CSCC1OCC(C(O)C(O)C2COC(CSC#N)O2)O1 (stereo not given)
inactive: [9] 95 % of control | dose: 200.0 mg/kg/injection, schedule: Q04DX002 (ip), vehicle: Klucel (hydroxypropylcellulose) (HPC) 98 % of control | [10] 95 % of control

CC1C(C)C23CCC12C(=O)C(O)C12CCC1(C(O)C3=O)C(C)C2C (stereo not given)
inactive: [4] 100 % of control | [5] 109 % of control | [8] 111 % of control

Cc1cc(O)c2c(c1)OC(C)(C)C1=C2CC(C)CC1 (stereo not given)
inactive: dose: 75.0 mg/kg/injection, schedule: Q01DX009 (ip), vehicle: Klucel (hydroxypropylcellulose) (HPC) 96 % of control | dose: 150.0 mg/kg/injection, schedule: Q01DX009 (ip), vehicle: Klucel (hydroxypropylcellulose) (HPC) 92 % of control | dose: 300.0 mg/kg/injection, schedule: Q01DX009 (ip), vehicle: Klucel (hydroxypropylcellulose) (HPC) 101 % of control

O=S(=O)(O)CCN1CCN(CCO)CC1
inactive: [11] 96 % of control | [1] 95 % of control | [12] 91 % of control | [2] 101 % of control | [13] 98 % of control | [3] 97 % of control

CC1=NC(C#N)=C(C#N)N=C(C)C1
inactive: [6] 107 % of control | [7] 98 % of control | dose: 25.0 mg/kg/injection, schedule: Q01DX009 (ip), vehicle: Klucel (hydroxypropylcellulose) (HPC) 119 % of control | dose: 50.0 mg/kg/injection, schedule: Q01DX009 (ip), vehicle: Klucel (hydroxypropylcellulose) (HPC) 107 % of control

COCC(=O)Oc1cc(-c2ccc(C)cc2C)c(OC(=O)COC)c(-c2ccc(C)cc2C)c1
inactive: dose: 75.0 mg/kg/injection, schedule: Q04DX003 (ip), vehicle: Klucel (hydroxypropylcellulose) (HPC) 90 % of control | [14] 90 % of control | dose: 150.0 mg/kg/injection, schedule: Q04DX003 (ip), vehicle: Klucel (hydroxypropylcellulose) (HPC) 87 % of control | [15] 91 % of control | dose: 300.0 mg/kg/injection, schedule: Q04DX003 (ip), vehicle: Klucel (hydroxypropylcellulose) (HPC) 93 % of control and 94 % of control | [16] 101 % of control

O=S1(=O)C(c2ccccc2)C(N2CCCCC2)C1C1CC2c3ccccc3C1c1ccccc12 (stereo not given)
inactive: dose: 75.0 mg/kg/injection, schedule: Q01DX001 (ip), vehicle: carboxymethylcellulose (CMC) 91 % of control | dose: 150.0 mg/kg/injection, schedule: Q01DX001 (ip), vehicle: carboxymethylcellulose (CMC) 91 % of control | dose: 300.0 mg/kg/injection, schedule: Q01DX001 (ip), vehicle: carboxymethylcellulose (CMC) 86 % of control

CCC[CH2][Sn]([I])([CH2]C)[CH2]C
inactive: [9] 90 % of control | [10] 101 % of control

CC(=O)[O][Hg][CH2]C1(C)COC(C)([CH2][Hg][O]C(C)=O)CO1 (stereo not given)
inactive: dose: 10.0 mg/kg/injection, schedule: Q01DX001 (ip), vehicle: carboxymethylcellulose (CMC) 108 % of control | dose: 20.0 mg/kg/injection, schedule: Q01DX001 (ip), vehicle: carboxymethylcellulose (CMC) 97 % of control | dose: 80.0 mg/kg/injection, schedule: Q01DX001 (ip), vehicle: carboxymethylcellulose (CMC) 97 % of control

CCN(C)O
inactive: [11] 109 % of control | [1] 110 % of control | [12] 111 % of control | [2] 105 % of control | [13] 104 % of control | [3] 114 % of control

CC(=O)OC1CCC(N)CC1 (stereo not given)
inactive: dose: 100.0 mg/kg/injection, schedule: Q01DX001 (ip), vehicle: other 98 % of control | dose: 200.0 mg/kg/injection, schedule: Q01DX001 (ip), vehicle: other 96 % of control | dose: 400.0 mg/kg/injection, schedule: Q01DX001 (ip), vehicle: other 96 % of control

CCCCCCCCCCCCCCCCN(C)C(=S)c1ccc(Cl)c(Cl)c1
inactive: [14] 100 % of control | dose: 100.0 mg/kg/injection, schedule: Q04DX003 (ip), vehicle: Klucel (hydroxypropylcellulose) (HPC) 100 % of control | [15] 100 % of control | dose: 200.0 mg/kg/injection, schedule: Q04DX003 (ip), vehicle: Klucel (hydroxypropylcellulose) (HPC) 96 % of control | [16] 98 % of control | dose: 400.0 mg/kg/injection, schedule: Q04DX003 (ip), vehicle: Klucel (hydroxypropylcellulose) (HPC) 91 % of control
